# Laboratory results as given in PubChem BioAssay (NCI).
#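 GI50 is the concentration that inhibits growth by half. At the TGI there is no net growth.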
# Key:
# Experiment in all cases: NCI tumour cell line growth inhibition, 384-well format
# [1] = system: SK-MEL-28 melanoma
# [2] = system: HS 578T breast
# [3] = system: NCI-H460 NSCLC
# [4] = system: UACC-62 melanoma
# [5] = system: SK-MEL-5 melanoma
# [6] = system: A498 renal
# [7] = system: HCT-15 colon
# [8] = system: NCI-H522 lung
# [9] = system: HOP-92 NSCLC
# [10] = system: OVCAR-3 ovarian
# [11] = system: HOP-62 NSCLC
# [12] = system: CCRF-CEM leukemia
# [13] = system: SF-539 CNS
# [14] = system: MDA-MB-231 breast
# [15] = system: OVCAR-8 ovarian
# [16] = system: T-47D breast
# [17] = system: K-562 leukemia
# [18] = system: IGROV1 ovarian
# [19] = system: SR leukemia
# [20] = system: MALME-3M melanoma
# [21] = system: DU-145 prostate
# [22] = system: HT29 colon
# [23] = system: NCI-H226 lung
# [24] = system: M14 melanoma
# [25] = system: SNB-19 CNS
# [26] = system: SF-295 CNS
# [27] = system: OVCAR-5 ovarian
# [28] = system: KM12 colon
# [29] = system: 786-0 renal
# [30] = system: MOLT-4 leukemia
# [31] = system: SK-OV-3 ovarian
# [32] = system: NCI/ADR-RES ovarian
# [33] = system: CAKI-1 renal
# [34] = system: RXF 393 renal
# [35] = system: SN12C renal
# [36] = system: HL-60(TB) leukemia
# [37] = system: NCI-H322M lung
# [38] = system: UACC-257 melanoma
# [39] = system: SNB-75 CNS
# [40] = system: SW-620 colon
# [41] = system: PC-3 prostate
# [42] = system: MCF7 breast
# [43] = system: HCT-116 colon
# [44] = system: EKVX NSCLC
# [45] = system: A549 NSCLC
# [46] = system: COLO 205 colon
# [47] = system: U251 glioblastoma
# [48] = system: LOX IMVI melanoma
# [49] = system: MDA-MB-468 breast
# [50] = system: SK-MEL-2 melanoma
# [51] = system: ACHN renal
# [52] = system: TK-10 renal
# [53] = system: NCI-H23 lung
# [54] = system: BT-549 breast
# [55] = system: SF-268 CNS
# [56] = system: OVCAR-4 ovarian
# [57] = system: MDA-MB-435 melanoma
# [58] = system: RPMI-8226 leukemia
# [59] = system: HCC-2998 colon
smiles,measurement,setting,value
N#Cc1ccc(-c2c(-c3ncn[nH]3)sc(N3CCOCC3)c2C#N)c(F)c1,GI50,[1],1.76 µM
same,TGI,[1],> 67.9 µM
same,GI50,[2],0.779 µM
same,TGI,[2],16 µM
same,GI50,[3],0.68 µM
same,TGI,[3],11.4 µM
same,GI50,[4],1.01 µM
same,TGI,[4],10.8 µM
same,GI50,[5],1.77 µM
same,TGI,[5],10 µM
same,GI50,[6],0.577 µM
same,TGI,[6],2.67 µM
same,GI50,[7],1.69 µM
same,TGI,[7],15.9 µM
same,GI50,[8],1.98 µM
same,TGI,[8],17.3 µM
same,GI50,[9],1.16 µM
same,TGI,[9],> 33 µM
same,GI50,[10],0.837 µM
same,TGI,[10],5.83 µM
same,GI50,[11],3.4 µM
same,TGI,[11],21 µM
same,GI50,[12],2.21 µM
same,TGI,[12],9.61 µM
same,GI50,[13],1.7 µM
same,TGI,[13],20 µM
same,GI50,[14],5.88 µM
same,TGI,[14],> 62.6 µM
same,GI50,[15],3.52 µM
same,TGI,[15],> 60.2 µM
same,GI50,[16],0.152 µM
same,TGI,[16],2.54 µM
same,GI50,[17],6.27 µM
same,TGI,[17],> 100 µM
same,GI50,[18],0.191 µM
same,TGI,[18],0.631 µM
same,GI50,[19],0.763 µM
same,TGI,[19],2.57 µM
same,GI50,[20],0.95 µM
same,TGI,[20],6.92 µM
same,GI50,[21],1.91 µM
same,TGI,[21],15.1 µM
same,GI50,[22],0.9 µM
same,TGI,[22],17.9 µM
same,GI50,[23],2.01 µM
same,TGI,[23],17.3 µM
same,GI50,[24],2.95 µM
same,TGI,[24],31.8 µM
same,GI50,[25],14.7 µM
same,TGI,[25],> 70.8 µM
same,GI50,[26],1.24 µM
same,TGI,[26],15.7 µM
same,GI50,[27],1.01 µM
same,TGI,[27],26.1 µM
same,GI50,[28],3.64 µM
same,TGI,[28],20.3 µM
same,GI50,[29],2.13 µM
same,TGI,[29],11.5 µM
same,GI50,[30],0.413 µM
same,TGI,[30],1.71 µM
same,GI50,[31],0.315 µM
same,TGI,[31],5.89 µM
same,GI50,[32],5.53 µM
same,TGI,[32],63.6 µM
same,GI50,[33],0.557 µM
same,TGI,[33],13.2 µM
same,GI50,[34],1.27 µM
same,TGI,[34],7.45 µM
same,GI50,[35],0.145 µM
same,TGI,[35],3.77 µM
same,GI50,[36],0.209 µM
same,TGI,[36],1.44 µM
same,GI50,[37],1.32 µM
same,TGI,[37],5.36 µM
same,GI50,[38],2.51 µM
same,TGI,[38],15.1 µM
same,GI50,[39],0.32 µM
same,GI50,[40],4.94 µM
same,TGI,[40],23.6 µM
same,GI50,[41],0.641 µM
same,TGI,[41],8.87 µM
same,GI50,[42],0.222 µM
same,TGI,[42],20.6 µM
same,GI50,[43],1.52 µM
same,TGI,[43],38.5 µM
same,GI50,[44],0.368 µM
same,TGI,[44],3.44 µM
same,GI50,[45],1.35 µM
same,TGI,[45],11.8 µM
same,GI50,[46],1.65 µM
same,TGI,[46],17.4 µM
same,GI50,[47],7.2 µM
same,TGI,[47],> 80.6 µM
same,GI50,[48],1.93 µM
same,TGI,[48],13.5 µM
same,GI50,[49],0.54 µM
same,TGI,[49],2.68 µM
same,GI50,[50],2.64 µM
same,TGI,[50],12.6 µM
same,GI50,[51],0.525 µM
same,TGI,[51],14.2 µM
same,GI50,[52],0.789 µM
same,TGI,[52],9.59 µM
same,GI50,[53],2.35 µM
same,TGI,[53],> 55.3 µM
same,GI50,[54],1.95 µM
same,TGI,[54],12.8 µM
same,GI50,[55],4.1 µM
same,TGI,[55],33 µM
same,GI50,[56],1.96 µM
same,TGI,[56],22.1 µM
same,GI50,[57],2.47 µM
same,TGI,[57],19.5 µM
same,GI50,[58],1.82 µM
same,TGI,[58],5.06 µM
same,GI50,[59],1.23 µM
same,TGI,[59],10.8 µM
